According to article PMC3488302 (MedChemComm, 2012):
*1 amine or outer side, *2 acyl side, *3 side chain or, on linkers, in order; H or OH if unused. Where a SMILES comes first, the peptide text is derived from it. [ ]: non-standard residue; d: D form. The star is where a group is joined. NMeAbu(4-morpholino) = CN[C@@H](CCN1CCOCC1)C(=O)O; X1 = CN([C@@H](CCN1CCCCC1)C(=O)[*:2])[*:1]; NMeW = CN[C@@H](Cc1c[nH]c2ccccc12)C(=O)O; NMeY = CN[C@@H](Cc1ccc(O)cc1)C(=O)O; NMeCha = CN[C@@H](CC1CCCCC1)C(=O)O; NMeLys(Me) = CNCCCC[C@H](NC)C(=O)O; NMeF = CN[C@@H](Cc1ccccc1)C(=O)O; NMeI = CC[C@H](C)[C@H](NC)C(=O)O; NMeT = CN[C@H](C(=O)O)[C@@H](C)O; NMeD = CN[C@@H](CC(=O)O)C(=O)O; dNMeL = CN[C@H](CC(C)C)C(=O)O; NMeK = CN[C@@H](CCCCN)C(=O)O; NMeS = CN[C@@H](CO)C(=O)O; Morpholide = C1CN(*)CCO1; NMeA = CN[C@@H](C)C(=O)O; Piperidide = C1CCN(*)CC1

How the values were obtained:
RRCK permeability = conditions: MDCK; for Papp A→B: dog
[1] = tested on: RRCK (Ralph Russ canine kidney cell line); test: RRCK permeability; conditions: MDCK
[2] = rat intestinal S-9 fraction and rat brush border membrane vesicles
[3] = rat; cited from earlier work
Caco-2 = conditions: cited from earlier work

CC(C)C[C@@H]1NC(=O)[C@H](Cc2ccc(O)cc2)N(C)C(=O)[C@H]2CCCN2C(=O)[C@H](CC(C)C)NC(=O)[C@H](CO)N(C)C(=O)[C@@H](CC(C)C)N(C)C1=O [Compound 2] (cyclo(L[dNMeL][NMeS]L[dP][NMeY]))
recovery (RRCK permeability): 84.3% | log Papp(RRCK) [1]: −5.81 | stability towards oxidative or proteolytic degradation [2]: stable

CC(C)C[C@@H]1NC(=O)[C@H](Cc2ccc(O)cc2)N(C)C(=O)[C@H]2CCCN2C(=O)[C@H](CC(C)C)NC(=O)[C@H]([C@@H](C)O)N(C)C(=O)[C@@H](CC(C)C)N(C)C1=O [Compound 3] (cyclo(L[dNMeL][NMeT]L[dP][NMeY]))
log Papp(RRCK) [1]: −5.33

CC[C@H](C)[C@H]1C(=O)N[C@@H](CC(C)C)C(=O)N2CCC[C@@H]2C(=O)N(C)[C@@H](Cc2ccc(O)cc2)C(=O)N[C@@H](CC(C)C)C(=O)N(C)[C@H](CC(C)C)C(=O)N1C [Compound 4] (cyclo(L[dNMeL][NMeI]L[dP][NMeY]))
recovery (RRCK permeability): 39.7%

CC(C)C[C@@H]1NC(=O)[C@H](Cc2ccc(O)cc2)N(C)C(=O)[C@H]2CCCN2C(=O)[C@H](CC(C)C)NC(=O)[C@H](C)N(C)C(=O)[C@@H](CC(C)C)N(C)C1=O [Compound 5] (cyclo(L[dNMeL][NMeA]L[dP][NMeY]))
recovery (RRCK permeability): 47.1% | log Papp(RRCK) [1]: −5.26

CC(C)C[C@@H]1NC(=O)[C@H](Cc2ccc(O)cc2)N(C)C(=O)[C@H]2CCCN2C(=O)[C@H](CC(C)C)NC(=O)[C@H](Cc2ccc(O)cc2)N(C)C(=O)[C@@H](CC(C)C)N(C)C1=O [Compound 6] (cyclo(L[dNMeL][NMeY]L[dP][NMeY]))
recovery (RRCK permeability): 72.6% | log Papp(RRCK) [1]: −5.88

CC(C)C[C@@H]1NC(=O)[C@H](Cc2ccc(O)cc2)N(C)C(=O)[C@H]2CCCN2C(=O)[C@H](CC(C)C)NC(=O)[C@H](Cc2ccccc2)N(C)C(=O)[C@@H](CC(C)C)N(C)C1=O [Compound 7] (cyclo(L[dNMeL][NMeF]L[dP][NMeY]))
recovery (RRCK permeability): 59.8% | log Papp(RRCK) [1]: −5.24

CC(C)C[C@@H]1NC(=O)[C@H](Cc2ccc(O)cc2)N(C)C(=O)[C@H]2CCCN2C(=O)[C@H](CC(C)C)NC(=O)[C@H](Cc2c[nH]c3ccccc23)N(C)C(=O)[C@@H](CC(C)C)N(C)C1=O [Compound 8] (cyclo(L[dNMeL][NMeW]L[dP][NMeY]))
recovery (RRCK permeability): 37.1% | log Papp(RRCK) [1]: −6.66

CC(C)C[C@@H]1NC(=O)[C@H](Cc2ccc(O)cc2)N(C)C(=O)[C@H]2CCCN2C(=O)[C@H](CC(C)C)NC(=O)[C@H](CC(=O)O)N(C)C(=O)[C@@H](CC(C)C)N(C)C1=O [Compound 9] (cyclo(L[dNMeL][NMeD]L[dP][NMeY]))
recovery (RRCK permeability): 74.8% | Papp A→B (RRCK permeability): 0.457 ×10⁻⁶ cm/s

CC(C)C[C@@H]1NC(=O)[C@H](Cc2ccc(O)cc2)N(C)C(=O)[C@H]2CCCN2C(=O)[C@H](CC(C)C)NC(=O)[C@H](CCCCN)N(C)C(=O)[C@@H](CC(C)C)N(C)C1=O [Compound 10] (cyclo(L[dNMeL][NMeK]L[dP][NMeY]))
recovery (RRCK permeability): 56.5% | log Papp(RRCK) [1]: −6.56

CNCCCC[C@H]1C(=O)N[C@@H](CC(C)C)C(=O)N2CCC[C@@H]2C(=O)N(C)[C@@H](Cc2ccc(O)cc2)C(=O)N[C@@H](CC(C)C)C(=O)N(C)[C@H](CC(C)C)C(=O)N1C [Compound 11] (cyclo(L[dNMeL][NMeLys(Me)]L[dP][NMeY]))
recovery (RRCK permeability): 59.7% | Papp A→B (RRCK permeability): 0.234 ×10⁻⁶ cm/s

CC(C)C[C@@H]1NC(=O)[C@H](Cc2ccc(O)cc2)N(C)C(=O)[C@H]2CCCN2C(=O)[C@H](CC(C)C)NC(=O)[C@H](CC2CCCCC2)N(C)C(=O)[C@@H](CC(C)C)N(C)C1=O [Compound 12] (cyclo(L[dNMeL][NMeCha]L[dP][NMeY]))
recovery (RRCK permeability): 12.2% | log Papp(RRCK) [1]: −6.74

CC(C)C[C@@H]1NC(=O)[C@H](Cc2ccc(O)cc2)N(C)C(=O)[C@H]2CCCN2C(=O)[C@H](CC(C)C)NC(=O)[C@H](CCN2CCCCC2)N(C)C(=O)[C@@H](CC(C)C)N(C)C1=O [Compound 13] (cyclo(L[dNMeL][X1]L[dP][NMeY]))
recovery (RRCK permeability): 47.9% | log Papp(RRCK) [1]: −6.15

CC(C)C[C@@H]1NC(=O)[C@H](Cc2ccc(O)cc2)N(C)C(=O)[C@H]2CCCN2C(=O)[C@H](CC(C)C)NC(=O)[C@H](CC(=O)N2CCCCC2)N(C)C(=O)[C@@H](CC(C)C)N(C)C1=O [Compound 14] (cyclo(L[dNMeL][NMeD](Piperidide)L[dP][NMeY]))
recovery (RRCK permeability): 45.6% | log Papp(RRCK) [1]: −5.84

CC(C)C[C@@H]1NC(=O)[C@H](Cc2ccc(O)cc2)N(C)C(=O)[C@H]2CCCN2C(=O)[C@H](CC(C)C)NC(=O)[C@H](CCN2CCOCC2)N(C)C(=O)[C@@H](CC(C)C)N(C)C1=O [Compound 15] (cyclo(L[dNMeL][NMeAbu(4-morpholino)]L[dP][NMeY]))
recovery (RRCK permeability): 48.7% | log Papp(RRCK) [1]: −5.92

CC(C)C[C@@H]1NC(=O)[C@H](Cc2ccc(O)cc2)N(C)C(=O)[C@H]2CCCN2C(=O)[C@H](CC(C)C)NC(=O)[C@H](CC(=O)N2CCOCC2)N(C)C(=O)[C@@H](CC(C)C)N(C)C1=O [Compound 16] (cyclo(L[dNMeL][NMeD](Morpholide)L[dP][NMeY]))
recovery (RRCK permeability): 47.9% | log Papp(RRCK) [1]: −6.20

cyclo-[LPro-LPhe-DTrp(NMe)-LLys(NMe)-LThr-LPhe(NMe)] [Kessler peptide]
oral bioavailability [3]: 10% | Caco-2 permeability (Caco-2): good
